In patent publication US20240174596A1 (Northwestern University, priority 2021, published 2024):
Where a name gives a salt, the structure may show the parent alone. Read-outs that look alike come from different tables or passages of the source.

Legend:
CYP 2C19 = CYP 2C19 (Homo sapiens, UniProt P33261); experiment: CYP inhibition 2C19; assay type: in vitro ADME
hOAT [1] = biological target: T1, hOAT (Homo sapiens, UniProt P04181); experiment: Time-dependent inactivation of hOAT; assay type: biochemical
T1 construct: made in house; host or cells: E. coli BL21(DE3)
T1 sequence (P04181 26-439): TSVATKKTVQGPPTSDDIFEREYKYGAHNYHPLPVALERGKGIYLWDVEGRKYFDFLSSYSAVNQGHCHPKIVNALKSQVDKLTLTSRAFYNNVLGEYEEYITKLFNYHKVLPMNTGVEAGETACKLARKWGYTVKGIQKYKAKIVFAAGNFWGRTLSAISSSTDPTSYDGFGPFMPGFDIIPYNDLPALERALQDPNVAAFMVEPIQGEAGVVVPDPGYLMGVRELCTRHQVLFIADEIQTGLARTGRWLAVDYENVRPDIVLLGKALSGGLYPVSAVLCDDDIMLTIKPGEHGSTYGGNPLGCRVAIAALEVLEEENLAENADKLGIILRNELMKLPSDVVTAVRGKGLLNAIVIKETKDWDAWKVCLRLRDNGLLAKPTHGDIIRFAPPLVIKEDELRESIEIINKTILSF
Method: All reagents for enzyme purification and assays were purchased from Sigma-Aldrich (St. Louis, MO, USA). Human OAT (0.672 mg/mL) was purified from E. coli BL21 (DE3) cells following the procedure described above, and coenzyme human recombinant pyrroline 5-carboxylate reductase (PYCRI) were expressed, grown, and purified according to a literature procedure.^4 γ-Aminobutyric acid aminotransferase (GABA-AT, 0.4 mg/mL) was purified from pig brain following a procedure described previously^5, and coenzyme succinic semialdehyde dehydrogenase (SSDH) was purified from GABase (catalog No. G7509-25UN, Sigma-Aldrich), a commercially available mixture of SSDH and GABA-AT, using a known procedure.^6 Commercially available L-aspartate aminotransferase (Asp-AT) from the porcine heart (catalog No. G2751-2KU, Sigma-Aldrich) and the desired assay coenzyme malic dehydrogenase from porcine (catalog No. M2634-5KU, Sigma-Aldrich), and L-alanine aminotransferase (Ala-AT) from the porcine heart (catalog No. G8255-200UN, Sigma-Aldrich) and the desired assay coenzyme lactate dehydrogenase from porcine (catalog No. 427211-50KU, Sigma-Aldrich) were used directly without further purification. All the enzyme assays for the inactivation, partition ratio, and dialysis experiment were recorded on a Synergy H1 hybrid multimode microplate reader (Biotek, USA) with transparent 96-well plates.
Time-dependent inactivation against hOAT was performed using an optimized procedure published previously.^7 10 μL of hOAT (0.025 mg/mL) was preincubated with 10 μL of various concentrations of tested compounds in 100 mM potassium pyrophosphate buffer (pH 8.0, 5 mM α-ketoglutarate, and 5 mM β-mercaptoethanol) at 25° C. in a 96-well plate. At time intervals, 80 μL of assay solution containing PYCR^1 (0.5 μg), 1 mM NADH, and 25 mM L-ornithine in the abovementioned potassium pyrophosphate buffer were added to the incubation mixture and assayed for OAT activity at 37° C. for 30 min. The change in UV absorbance at 340 nm at 37° C. based on the conversion of NADH to NAD was monitored by a microplate reader. All assays were performed in duplicate, and the remaining OAT activity at each preincubation time at each inhibitor concentration was averaged. The natural logarithm of the percentage of the remaining OAT activity was plotted against the preincubation time at each inhibitor concentration to obtain the kobs (slope) value for each concentration. The kobs value is the rate constant describing the inactivation at each inhibitor concentration. kobs is replotted against the inhibitor concentration using nonlinear regression analysis using GraphPad Prism 8.0. K1 and kinact values were estimated from equation (1)
where kinact is the maximal rate of inactivation, K1 is the inhibitor concentration required for half-maximal inactivation, and [I] is the preincubation concentration of the tested compound.

Plasma PK profiles = assay type: in vivo
hOAT [2] = biological target: T1, hOAT; experiment: Fluoride ion release assay; assay type: biochemical
Method: The fluoride ion release assay was conducted using previous protocols.^10 The final concentration of enzyme in the sample was determined via BCA protein assay kit (Pierce, cat: 23225). A calibration curve of voltage (V, mV) was generated from varying concentrations of NaF (F, μM). For accurate detection of fluoride ion concentration, 10 μM of fluoride ion was added to each control and sample The number of fluoride ions released per active site was calculated by the ratio of the fluoride ion release concentration and enzyme concentration.

[3] = Liver microsomal stability, mouse; assay type: in vitro ADME
hERG = hERG (Homo sapiens, UniProt Q12809); experiment: hERG test; assay type: in vitro ADME
Aqueous solubility = assay type: physicochemical; conditions: aqueous medium (not further specified); HCl salt
[4] = Plasma protein binding, mouse; assay type: in vitro ADME
Brain/plasma PK studies = assay type: in vivo; conditions: brain, read-out: B/P ratio

Chain of hERG (Q12809 whole entry): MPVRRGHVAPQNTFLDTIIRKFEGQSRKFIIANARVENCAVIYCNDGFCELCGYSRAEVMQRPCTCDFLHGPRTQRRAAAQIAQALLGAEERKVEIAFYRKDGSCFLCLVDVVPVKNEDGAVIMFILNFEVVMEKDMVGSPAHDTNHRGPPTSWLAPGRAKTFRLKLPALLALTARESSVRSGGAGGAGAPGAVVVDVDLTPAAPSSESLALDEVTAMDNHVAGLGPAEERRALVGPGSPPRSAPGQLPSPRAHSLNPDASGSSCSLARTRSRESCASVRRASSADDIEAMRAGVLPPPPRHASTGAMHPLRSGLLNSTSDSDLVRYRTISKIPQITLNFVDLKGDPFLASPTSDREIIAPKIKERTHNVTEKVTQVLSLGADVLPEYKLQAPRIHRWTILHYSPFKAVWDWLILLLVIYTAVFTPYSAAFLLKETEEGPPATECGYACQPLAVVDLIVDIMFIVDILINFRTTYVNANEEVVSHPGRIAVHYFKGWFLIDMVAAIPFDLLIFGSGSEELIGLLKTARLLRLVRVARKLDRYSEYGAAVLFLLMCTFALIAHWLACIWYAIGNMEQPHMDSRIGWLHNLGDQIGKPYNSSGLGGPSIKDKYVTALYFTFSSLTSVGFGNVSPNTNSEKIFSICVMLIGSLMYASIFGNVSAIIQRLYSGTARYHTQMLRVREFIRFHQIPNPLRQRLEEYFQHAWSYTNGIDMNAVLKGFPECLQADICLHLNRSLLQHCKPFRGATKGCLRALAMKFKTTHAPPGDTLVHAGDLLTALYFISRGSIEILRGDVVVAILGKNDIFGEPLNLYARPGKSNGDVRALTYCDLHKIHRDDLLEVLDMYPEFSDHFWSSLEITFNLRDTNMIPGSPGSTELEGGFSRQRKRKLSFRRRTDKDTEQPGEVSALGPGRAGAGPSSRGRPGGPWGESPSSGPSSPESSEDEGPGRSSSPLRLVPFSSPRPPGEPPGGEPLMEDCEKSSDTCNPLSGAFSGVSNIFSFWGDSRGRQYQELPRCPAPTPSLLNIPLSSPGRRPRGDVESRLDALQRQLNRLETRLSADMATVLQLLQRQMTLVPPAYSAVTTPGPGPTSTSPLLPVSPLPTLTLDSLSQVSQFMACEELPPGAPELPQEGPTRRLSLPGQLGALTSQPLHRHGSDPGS
Chain of CYP 2C19 (P33261 whole entry): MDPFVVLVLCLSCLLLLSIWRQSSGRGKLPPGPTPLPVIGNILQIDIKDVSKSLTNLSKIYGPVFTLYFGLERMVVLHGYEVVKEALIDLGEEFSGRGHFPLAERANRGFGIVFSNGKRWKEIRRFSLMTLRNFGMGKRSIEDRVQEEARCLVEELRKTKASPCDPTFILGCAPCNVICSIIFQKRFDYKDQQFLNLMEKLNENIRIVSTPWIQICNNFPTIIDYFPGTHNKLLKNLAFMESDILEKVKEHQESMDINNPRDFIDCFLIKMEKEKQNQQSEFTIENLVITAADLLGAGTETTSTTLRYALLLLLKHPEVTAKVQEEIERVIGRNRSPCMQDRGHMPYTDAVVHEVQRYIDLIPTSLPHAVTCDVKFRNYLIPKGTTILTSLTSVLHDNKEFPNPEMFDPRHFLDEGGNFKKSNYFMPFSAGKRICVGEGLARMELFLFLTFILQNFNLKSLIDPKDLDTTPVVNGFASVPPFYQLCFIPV

With `N[C@H]1C=C(C(=O)O)CC1(F)F` [SS-1-148, (S)-3-Amino-4,4-difluorocyclopent-1-enecarboxylic acid hydrochloric acid salt] the IC50 (CYP 2C19) was over 100 µM, the “improvement of inactivation efficiency (kinact/K1) relative to parent compound 4” value (hOAT [1]) was 444 fold and the “type of inhibition on hOAT” value (hOAT [1]) was “irreversible inhibitor”. It also gave a kinact/KI (hOAT [1]; inactivation efficiency) of 22.2 M⁻¹ s⁻¹, a kinact (hOAT [1]; mean and standard error) of 0.00133 s⁻¹ and an AUC(0-inf) (Plasma PK profiles; IV (5 mg/kg)) of 1160 ng·h/mL. The AUC(0-t) (Plasma PK profiles; IV (5 mg/kg)) was 1150 ng·h/mL, the Cmax (Plasma PK profiles; IV (5 mg/kg)) was 4680 ng/mL and the T1/2 (Plasma PK profiles; IV (5 mg/kg)) was 0.43 H. For the same molecule, the clearance (Plasma PK profiles; IV (5 mg/kg)) was 72 mL/min/kg, the Vd (Plasma PK profiles; IV (5 mg/kg), read-out: Vss) was 1.01 L/kg and the AUC(0-inf) (Plasma PK profiles; PO (30 mg/kg)) was 8530 ng·h/mL. It also gave an AUC(0-t) (Plasma PK profiles; PO (30 mg/kg)) of 8440 ng·h/mL, a Cmax (Plasma PK profiles; PO (30 mg/kg)) of 8080 ng/mL and a Tmax (Plasma PK profiles; PO (30 mg/kg)) of 15 min. For the same molecule, the bioavailability (Plasma PK profiles; PO (30 mg/kg)) was about 100%, the “fluoride ion released per inactivation event” value (hOAT [2]) was 33.9±0.8 equivalents and the Fluoride ion release (hOAT [2]; without α-KG, triplicate, mean with standard deviation) was 33.9 ± 0.8. The “Liver microsomal stability (t1/2) Mouse” value [3] was “N/C”, the IC50 (hERG) was over 30 µM and the solubility (Aqueous solubility) was over 50 mM. The fraction unbound [4] was 1, the Kp at 0.25 h (Brain/plasma PK studies; IV (5 mg/kg)) was 0.2 and the Kp at 0.25 h (Brain/plasma PK studies; PO (30 mg/kg)) was 0.14. For the same molecule, the Kp at 2 h (Brain/plasma PK studies; PO (30 mg/kg), 2 h) was 0.26.
